From ChEMBL document CHEMBL4507272 (2021)

Columns and labels:
Conditions in all cases: Compound concentration 10.0 uM
[1] = target: 5-hydroxytryptamine receptor 1A (Homo sapiens) (UniProt P08908)
[2] = target: 5-hydroxytryptamine receptor 1B (Homo sapiens) (UniProt P28222)
[3] = target: 5-hydroxytryptamine receptor 2A (Homo sapiens) (UniProt P28223)
[4] = target: 5-hydroxytryptamine receptor 2B (Homo sapiens) (UniProt P41595)
[5] = target: 5-hydroxytryptamine receptor 2C (Homo sapiens) (UniProt P28335)
[6] = target: 5-hydroxytryptamine receptor 3A (Homo sapiens) (UniProt P46098)
[7] = target: 5-hydroxytryptamine receptor 5A (Homo sapiens) (UniProt P47898)
Sequence of 5-hydroxytryptamine receptor 5A (Homo sapiens) (P47898 whole entry): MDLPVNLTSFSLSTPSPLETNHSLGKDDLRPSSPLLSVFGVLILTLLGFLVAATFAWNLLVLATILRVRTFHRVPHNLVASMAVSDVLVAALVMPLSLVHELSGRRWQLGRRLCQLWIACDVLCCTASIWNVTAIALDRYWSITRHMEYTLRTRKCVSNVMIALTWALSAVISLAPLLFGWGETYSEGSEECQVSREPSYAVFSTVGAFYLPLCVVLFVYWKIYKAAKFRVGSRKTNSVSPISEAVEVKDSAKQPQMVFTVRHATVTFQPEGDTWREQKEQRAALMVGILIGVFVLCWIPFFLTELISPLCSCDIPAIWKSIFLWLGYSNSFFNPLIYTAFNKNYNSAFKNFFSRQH

[8] = target: 5-hydroxytryptamine receptor 6 (Homo sapiens) (UniProt P50406)
Sequence of 5-hydroxytryptamine receptor 6 (Homo sapiens) (P50406 whole entry): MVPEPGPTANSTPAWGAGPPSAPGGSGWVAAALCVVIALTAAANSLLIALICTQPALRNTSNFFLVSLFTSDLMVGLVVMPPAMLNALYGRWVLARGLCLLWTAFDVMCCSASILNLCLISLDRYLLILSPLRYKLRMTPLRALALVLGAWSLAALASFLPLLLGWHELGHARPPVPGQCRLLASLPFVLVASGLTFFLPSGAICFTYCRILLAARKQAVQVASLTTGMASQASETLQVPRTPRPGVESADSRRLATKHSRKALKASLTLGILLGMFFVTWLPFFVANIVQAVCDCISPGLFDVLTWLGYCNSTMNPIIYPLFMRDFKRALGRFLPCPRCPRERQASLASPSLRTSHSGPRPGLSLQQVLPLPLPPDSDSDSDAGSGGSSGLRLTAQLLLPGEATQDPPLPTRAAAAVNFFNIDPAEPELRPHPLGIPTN

[9] = target: 5-hydroxytryptamine receptor 7 (Homo sapiens) (UniProt P34969)
[10] = target: D(2) dopamine receptor (Homo sapiens) (UniProt P14416)
[11] = target: D(3) dopamine receptor (Homo sapiens) (UniProt P35462)
[12] = target: D(4) dopamine receptor (Homo sapiens) (UniProt P21917)
[13] = target: D(1B) dopamine receptor (Homo sapiens) (UniProt P21918)
[14] = target: Sodium-dependent serotonin transporter (Homo sapiens) (UniProt P31645)
Sequence of Sodium-dependent serotonin transporter (Homo sapiens) (P31645 whole entry, looked up): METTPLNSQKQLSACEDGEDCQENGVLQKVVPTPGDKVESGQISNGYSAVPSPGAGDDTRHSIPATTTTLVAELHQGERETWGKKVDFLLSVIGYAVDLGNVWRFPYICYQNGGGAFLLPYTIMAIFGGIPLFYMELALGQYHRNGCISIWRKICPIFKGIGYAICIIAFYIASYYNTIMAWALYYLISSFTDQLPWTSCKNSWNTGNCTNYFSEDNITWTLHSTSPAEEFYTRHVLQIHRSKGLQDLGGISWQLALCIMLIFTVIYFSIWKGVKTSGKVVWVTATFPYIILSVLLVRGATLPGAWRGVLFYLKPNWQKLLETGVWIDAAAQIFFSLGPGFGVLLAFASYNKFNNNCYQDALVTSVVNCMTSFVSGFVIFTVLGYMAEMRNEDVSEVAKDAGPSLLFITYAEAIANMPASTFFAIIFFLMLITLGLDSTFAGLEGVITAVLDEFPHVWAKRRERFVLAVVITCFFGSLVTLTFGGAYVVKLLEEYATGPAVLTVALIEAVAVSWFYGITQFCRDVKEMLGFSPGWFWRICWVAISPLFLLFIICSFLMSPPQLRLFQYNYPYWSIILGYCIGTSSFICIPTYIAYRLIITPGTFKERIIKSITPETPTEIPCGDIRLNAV

[15] = target: Sodium-dependent noradrenaline transporter (Homo sapiens) (UniProt P23975)
[16] = target: Sodium-dependent dopamine transporter (Homo sapiens) (UniProt Q01959)
[17] = target: Mu-type opioid receptor (Homo sapiens) (UniProt P35372)
Sequence of Mu-type opioid receptor (Homo sapiens) (P35372 whole entry): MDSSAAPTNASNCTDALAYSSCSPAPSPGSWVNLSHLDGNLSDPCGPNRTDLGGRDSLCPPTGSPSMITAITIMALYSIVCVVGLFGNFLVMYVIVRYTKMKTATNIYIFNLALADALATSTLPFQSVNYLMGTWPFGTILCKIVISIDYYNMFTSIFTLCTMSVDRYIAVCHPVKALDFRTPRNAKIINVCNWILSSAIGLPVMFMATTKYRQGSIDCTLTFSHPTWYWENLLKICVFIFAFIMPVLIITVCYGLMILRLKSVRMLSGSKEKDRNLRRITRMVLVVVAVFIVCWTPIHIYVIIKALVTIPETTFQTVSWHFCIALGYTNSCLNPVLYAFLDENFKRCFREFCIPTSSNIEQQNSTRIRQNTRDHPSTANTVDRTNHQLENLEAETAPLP

[18] = target: Delta-type opioid receptor (Homo sapiens) (UniProt P41143)
[19] = target: Kappa-type opioid receptor (Homo sapiens) (UniProt P41145)
[20] = target: T1, GABA-A receptor; anion channel (Rattus norvegicus) (UniProt O09028+P15431+P18506+P18508+P19969+P20236+P23574+P23576+P28471+P28473+P30191+P62813+P63079+P63138+Q91ZM7+Q9ES14)
[21] = target: Histamine H1 receptor (Homo sapiens) (UniProt P35367)
Sequence of Histamine H1 receptor (Homo sapiens) (P35367 whole entry): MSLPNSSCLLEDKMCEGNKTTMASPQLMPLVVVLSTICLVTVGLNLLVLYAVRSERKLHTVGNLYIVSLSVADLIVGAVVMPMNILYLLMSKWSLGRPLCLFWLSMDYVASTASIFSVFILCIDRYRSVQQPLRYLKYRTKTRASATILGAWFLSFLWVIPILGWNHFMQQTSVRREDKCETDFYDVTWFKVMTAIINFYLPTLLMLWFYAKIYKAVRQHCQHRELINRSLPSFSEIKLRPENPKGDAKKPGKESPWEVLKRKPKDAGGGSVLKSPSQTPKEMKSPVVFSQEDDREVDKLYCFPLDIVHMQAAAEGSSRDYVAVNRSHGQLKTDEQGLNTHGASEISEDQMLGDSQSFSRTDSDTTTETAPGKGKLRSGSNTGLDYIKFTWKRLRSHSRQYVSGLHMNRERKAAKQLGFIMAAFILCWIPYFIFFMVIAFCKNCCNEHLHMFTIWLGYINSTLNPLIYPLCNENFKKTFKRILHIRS

[22] = target: Histamine H2 receptor (Homo sapiens) (UniProt P25021)
[23] = target: Histamine H4 receptor (Homo sapiens) (UniProt Q9H3N8)
[24] = target: Alpha-1A adrenergic receptor (Homo sapiens) (UniProt P35348)
[25] = target: Alpha-1B adrenergic receptor (Homo sapiens) (UniProt P35368)
[26] = target: Alpha-2A adrenergic receptor (Homo sapiens) (UniProt P08913)
Sequence of Alpha-2A adrenergic receptor (Homo sapiens) (P08913 whole entry): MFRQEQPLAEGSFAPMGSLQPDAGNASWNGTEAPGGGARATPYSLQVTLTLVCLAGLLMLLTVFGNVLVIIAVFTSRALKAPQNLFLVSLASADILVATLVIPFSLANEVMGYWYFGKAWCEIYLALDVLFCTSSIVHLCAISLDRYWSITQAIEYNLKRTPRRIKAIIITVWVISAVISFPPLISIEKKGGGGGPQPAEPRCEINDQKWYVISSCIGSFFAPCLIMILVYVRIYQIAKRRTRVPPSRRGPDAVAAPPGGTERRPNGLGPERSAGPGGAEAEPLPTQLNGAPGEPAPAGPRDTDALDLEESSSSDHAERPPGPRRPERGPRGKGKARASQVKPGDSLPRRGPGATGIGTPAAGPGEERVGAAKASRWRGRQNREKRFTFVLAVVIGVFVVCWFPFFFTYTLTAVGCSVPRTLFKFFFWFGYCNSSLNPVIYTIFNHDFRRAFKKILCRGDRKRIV

[27] = target: Alpha-2B adrenergic receptor (Homo sapiens) (UniProt P18089)
Sequence of Alpha-2B adrenergic receptor (Homo sapiens) (P18089 whole entry): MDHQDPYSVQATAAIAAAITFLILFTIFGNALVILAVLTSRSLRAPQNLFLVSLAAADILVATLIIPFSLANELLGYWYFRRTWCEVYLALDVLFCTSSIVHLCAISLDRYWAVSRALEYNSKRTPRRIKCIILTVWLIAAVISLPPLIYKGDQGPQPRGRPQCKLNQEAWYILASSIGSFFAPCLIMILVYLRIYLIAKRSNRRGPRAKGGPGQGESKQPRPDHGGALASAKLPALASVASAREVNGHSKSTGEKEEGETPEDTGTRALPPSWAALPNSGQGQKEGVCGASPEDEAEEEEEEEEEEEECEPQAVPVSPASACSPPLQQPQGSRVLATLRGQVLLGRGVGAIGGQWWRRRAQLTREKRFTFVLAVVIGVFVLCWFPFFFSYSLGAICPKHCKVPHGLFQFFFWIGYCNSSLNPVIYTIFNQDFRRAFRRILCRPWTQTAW

[28] = target: Alpha-2C adrenergic receptor (Homo sapiens) (UniProt P18825)
[29] = target: Beta-1 adrenergic receptor (Homo sapiens, UniProt P08588)
[30] = target: Beta-2 adrenergic receptor (Homo sapiens) (UniProt P07550)
[31] = target: Muscarinic acetylcholine receptor M2 (Homo sapiens) (UniProt P08172)
[32] = target: Muscarinic acetylcholine receptor M3 (Homo sapiens) (UniProt P20309)
[33] = target: Muscarinic acetylcholine receptor M4 (Homo sapiens) (UniProt P08173)
Sequence of Muscarinic acetylcholine receptor M4 (Homo sapiens) (P08173 whole entry): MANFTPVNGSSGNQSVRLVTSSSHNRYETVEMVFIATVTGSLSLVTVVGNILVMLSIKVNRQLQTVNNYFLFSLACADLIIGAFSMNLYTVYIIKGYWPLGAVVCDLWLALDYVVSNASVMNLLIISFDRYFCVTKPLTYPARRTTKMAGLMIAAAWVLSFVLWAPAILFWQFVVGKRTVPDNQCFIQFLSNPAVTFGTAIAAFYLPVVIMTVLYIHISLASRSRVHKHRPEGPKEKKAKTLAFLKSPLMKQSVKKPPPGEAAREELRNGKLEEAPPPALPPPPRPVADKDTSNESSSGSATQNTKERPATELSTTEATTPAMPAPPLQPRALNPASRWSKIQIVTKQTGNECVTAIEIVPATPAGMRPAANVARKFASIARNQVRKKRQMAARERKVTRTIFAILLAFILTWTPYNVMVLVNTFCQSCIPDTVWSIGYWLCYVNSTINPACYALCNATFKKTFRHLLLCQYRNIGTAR

[34] = target: Muscarinic acetylcholine receptor M5 (Homo sapiens) (UniProt P08912)
[35] = target: Beta-3 adrenergic receptor (Homo sapiens) (UniProt P13945)
Sequence of Beta-3 adrenergic receptor (Homo sapiens) (P13945 whole entry, looked up): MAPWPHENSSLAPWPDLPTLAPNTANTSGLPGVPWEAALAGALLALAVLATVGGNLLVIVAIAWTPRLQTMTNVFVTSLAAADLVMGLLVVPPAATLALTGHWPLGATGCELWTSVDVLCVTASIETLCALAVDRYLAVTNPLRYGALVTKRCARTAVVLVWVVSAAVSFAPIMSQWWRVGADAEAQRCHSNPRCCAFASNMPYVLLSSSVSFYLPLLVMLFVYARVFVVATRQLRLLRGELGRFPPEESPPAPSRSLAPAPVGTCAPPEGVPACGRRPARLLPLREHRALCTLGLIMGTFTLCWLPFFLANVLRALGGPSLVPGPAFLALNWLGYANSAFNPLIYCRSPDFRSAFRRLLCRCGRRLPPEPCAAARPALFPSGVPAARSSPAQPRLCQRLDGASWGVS

[36] = target: T1, GABA-A receptor; anion channel (Rattus norvegicus); remark: listed apart in the source
[37] = target: Alpha-1D adrenergic receptor (Homo sapiens) (UniProt P25100)
Sequence of Alpha-1D adrenergic receptor (Homo sapiens) (P25100 whole entry): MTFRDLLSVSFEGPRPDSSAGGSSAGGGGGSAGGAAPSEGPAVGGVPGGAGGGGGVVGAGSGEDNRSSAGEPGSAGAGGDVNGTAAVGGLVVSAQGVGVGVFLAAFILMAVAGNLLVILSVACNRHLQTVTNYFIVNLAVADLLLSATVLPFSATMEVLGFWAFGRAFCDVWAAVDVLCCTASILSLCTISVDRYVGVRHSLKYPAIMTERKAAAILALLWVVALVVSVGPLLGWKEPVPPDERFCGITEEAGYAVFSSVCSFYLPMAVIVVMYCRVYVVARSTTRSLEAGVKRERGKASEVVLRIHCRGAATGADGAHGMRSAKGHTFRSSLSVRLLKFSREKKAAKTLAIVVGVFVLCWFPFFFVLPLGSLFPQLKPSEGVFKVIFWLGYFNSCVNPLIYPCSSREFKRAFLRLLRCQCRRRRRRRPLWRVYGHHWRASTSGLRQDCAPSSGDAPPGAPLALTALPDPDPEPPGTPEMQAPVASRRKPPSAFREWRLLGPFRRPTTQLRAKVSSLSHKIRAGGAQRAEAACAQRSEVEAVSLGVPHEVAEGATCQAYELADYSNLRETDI

[38] = target: Sigma intracellular receptor 2 (Homo sapiens) (UniProt Q5BJF2)
Sequence of Sigma intracellular receptor 2 (Homo sapiens) (Q5BJF2 whole entry): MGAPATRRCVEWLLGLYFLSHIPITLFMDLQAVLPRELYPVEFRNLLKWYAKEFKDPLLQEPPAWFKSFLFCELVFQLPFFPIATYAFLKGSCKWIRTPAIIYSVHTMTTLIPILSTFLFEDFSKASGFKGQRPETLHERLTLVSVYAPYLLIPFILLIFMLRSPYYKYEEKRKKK

inhibition [1]: 3.63%
inhibition [2]: 6.75%
inhibition [3]: -6.25%
inhibition [4]: 15.8%
inhibition [5]: 29%
inhibition [6]: 23.7%
inhibition [7]: 8.86%
inhibition [8]: 14.9%
inhibition [9]: 13.9%
inhibition [10]: -1.53%
inhibition [11]: -6.43%
inhibition [12]: 5.84%
inhibition [13]: 5.12%
inhibition [14]: 2.85%
inhibition [15]: -8.06%
inhibition [16]: 1.88%
inhibition [17]: 2.02%
inhibition [18]: 4.95%
inhibition [19]: -8.67%
inhibition [20]: -5.84%
inhibition [21]: 5.28%
inhibition [22]: 3.4%
inhibition [23]: -0.78%
inhibition [24]: -5.26%
inhibition [25]: -8.1%
inhibition [26]: -8.89%
inhibition [27]: 11.8%
inhibition [28]: 11%
inhibition [29]: 8.09%
inhibition [30]: 21.6%
inhibition [31]: -9.21%
inhibition [32]: 27.3%
inhibition [33]: 2.88%
inhibition [34]: 2.19%
inhibition [35]: 17.2%
inhibition [36]: 14.7%
inhibition [37]: 7.7%
inhibition [38]: 20.9%
SMILES: CC(=O)C1=C(C)N(c2cccc(C(F)(F)F)c2)C(=O)N[C@H]1c1ccc(C#N)nc1
